Laboratory results reported in patent EP0283349A1, “Process for obtaining tannic principles of vegetable origin, cosmetologic and pharmaceutical composition containing the tannic principle obtained by the process” (Lamaison, Jean-Louis, priority 1987, dated 1988).

These molecules were tested against élastase pancréatique porcine (Sus scrofa, UniProt P00772) (assay: Elastase inhibition (method of SHINOGI et al., substrate Boc-Ala-ONp)). Conditions: mass of inhibitor giving 50 % inhibition after 30 minutes; referred to the dry plant drug for plant extracts, real mass for defined principles.
Assay type: biochemical
Method: Les dosages d'activités inhibitrices de l'élastase, de la trypsine et de l'α-chymotrypsine ont été réalisés selon la méthode de SHINOGI et al. (1), la quantité d'inhibiteur étant adaptée de manière à obtenir une inhibition voisine de 50 % (I50) après 30 minutes, les extraits étant généralement préparés à partir de 0,5 g de poudre (250) de plante sèche dans 20 ml d'éthanol à 50 % V/V, les principes définis en solution à 1 mg/ml d'éthanol à 50 % V/V.

Chain of élastase pancréatique porcine (P00772 27-266): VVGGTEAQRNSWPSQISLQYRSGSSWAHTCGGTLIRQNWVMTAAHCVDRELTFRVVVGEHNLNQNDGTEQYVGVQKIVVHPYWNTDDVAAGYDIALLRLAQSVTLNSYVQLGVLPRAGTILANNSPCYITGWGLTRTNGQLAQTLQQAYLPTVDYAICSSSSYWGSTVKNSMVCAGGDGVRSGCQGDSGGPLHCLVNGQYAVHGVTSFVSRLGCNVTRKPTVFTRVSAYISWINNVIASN

Molecule | I 50 Elas-tase
C[C@@H]1O[C@@H](OC[C@H]2O[C@@H](Oc3c(-c4ccc(O)c(O)c4)oc4cc(O)cc(O)c4c3=O)[C@H](O)[C@@H](O)[C@@H]2O)[C@H](O)[C@H](O)[C@H]1O [Rutoside] | 150 µg
O=C(O)c1cc(O)c(O)c(O)c1 [Acide gallique] | 100 µg
O=c1c(O[C@@H]2O[C@H](CO)[C@H](O)[C@H](O)[C@H]2O)c(-c2ccc(O)c(O)c2)oc2cc(O)cc(O)c12 [Hypéroside] | 275 µg
O=c1c(O)c(-c2ccc(O)cc2O)oc2cc(O)cc(O)c12 [Morine] | 60 µg

Continued, values first:

I 50 Elas-tase | Molecule
600 µg | Hamamélitanin
250 µg | O=c1c(O)c(-c2ccc(O[C@@H]3O[C@H](CO)[C@@H](O)[C@H](O)[C@H]3O)c(O)c2)oc2cc(O)cc(O)c12 [Quercétine 4'-Glucoside]
50 µg | Acide tannique
250 µg | Ethoxazo-rutine
35 µg | Catéchine-épicatéchine
